{"source": "patent US20100227827A1", "about": "“METHOD OF INCREASING TRYPTOPHAN AND NICOTINAMIDE LEVELS IN VIVO” (priority 2006, published 2010)", "key": {"[1]": {"assay": "Molar ratio from neutralization of free organic acid with hydroxides", "assay_type": "physicochemical", "settings": "salt or chelate; listed as Quinic acid ammonium salt", "method": "Determination of salts and chelates of some naturally occurring polyhydroxylated and polycarboxylated organic acids are provided in Table 1. Experimental molar ratios were calculated from neutralization to pH=7.5 of free protonated organic acid (H^+) with sodium, potassium or ammonium hydroxides."}, "[2]": {"assay": "Repeat daily oral doses, quinic acid analyzed in serum by HPLC", "assay_type": "in vivo, human", "method": "Trial design for the clinical evaluation of Aqua Bimini™ (quinic acid ammonium chelate) was carried out at Lund University beginning Apr. 28, 2006. Two Subjects identity code protected as HL and RP received Aqua Bimini™ at 1500 mg/day and 3000 mg/day, respectively for 4 consecutive weeks (36 days). Repeat serum and urine samples were collected throughout the trial period and then pooled into groups for analysis as 6 weeks before (baseline), 4 weeks of intervention (treatment, 36 days) and 8 months dry-out (no treatment).\nTwo human volunteers subject two and subject one ingested daily doses of 1500 mg per day or 3000 mg per day and serum samples collected on May 8, May 15, May 18, May 23, May 29, and June 1.\nThese samples were each analyzed for quinic acid content in 200 μl serum after precipitation with 2 M trichloroacetic acid (TCA). The column used for these experiments was a C18 80×4.6 mm. The mobile phase was 0.2% trifluoroacetic (TFA):methanol 85:15. The UV detector was set at 215 nm and quinic acid eluted with a retention time of 1.40-1.5 min. The sensitivity for detection of this method was about 1 mg quinic acid /ml serum or a detectable dose of 70 mg/kg in humans not 21 to 42 mg/kg as used herein in this study. Thus this protocol could assess if the quinic acid levels in serum would accumulate after repeated daily administration during a period of 4-5 weeks."}, "[3]": {"assay": "Urinary quinic acid, hippuric acid, tryptophan and nicotinamide by HPLC", "assay_type": "in vivo, human", "settings": "for urinary tryptophan at start of treatment / urinary nicotinamide at start of treatment: 8 May 2006 and 15 May 2006; for dose excreted at 9 month: urine, oral, read-out: Dose recovery (excrete/dose), excreted as unmetabolized quinic acid", "method": "Blood samples were collected by venal puncture using vacutainers (red top, 10 ml) usually in the morning (a.m.) after 12 hours of fasting. Serum was separated from the blood clot after setting 2 hr on the bench top before centrifugation for 10 min at 1500×g. Sera prepared in this manner were stored at +4° C. until biochemical analysis usually within 1-30 days of collection. Urine samples were collected as a random 50 ml sample in the A.M. during the treatment and follow-up (after treatment for 8 months) periods. Urine was spun at 5000×g for 15 min and the supernatant stored at +4° C. until analyzed within 1 month of collection. After the first analysis all samples were further stored at −20° C. and used for repeat determinations over time. Trial design for the clinical evaluation of Aqua Bimini™ (quinic acid ammonium chelate) was carried out at Lund University beginning Apr. 28, 2006. […] Repeat serum and urine samples were collected throughout the trial period and then pooled into groups for analysis as 6 weeks before (baseline), 4 weeks of intervention (treatment, 36 days) and 8 months dry-out (no treatment). Urine samples were mixed with 1:2:4 v/v/v of: aqueous urine:95% ethanol:ethyl acetate for 10 min with vigorous shaking. The ethyl acetate layer was allowed to separate with gravity at room temperature, and then it was removed with a pipette and evaporated with an air stream to dryness in a vacuum hood. In this manner 1-2 ml of urine were reconstituted in 0.2 ml water or ethanol which represented a 5-10 fold increase in concentration. […] The urine samples were diluted 1:2:4 v/v/v with ethanol and ethyl acetate, and then the ethyl acetate fraction dried, solubilized in 0.2 ml water and used for HPLC analyses with 20 μl injections directly onto a C18 80×4.6 mm. The mobile phase was 0.2% trifluoroacetic (TFA):methanol:acetonitrile (70:30):water in a ratio 8:8:84 (v/v/v). The UV detector was set at 215 nm, and quinic acid eluted with a retention of 0.97-1.05 min and nicotinamide at 2.6-2.9 min. The detection limit in urine was about 1.5 mg/ml for quinic acid and for nicotinamide it was 0.015 mg/ml. […] The urine samples were diluted 1:2:4 v/v/v with ethanol and ethyl acetate, and then the ethyl acetate fraction dried, solubilized in 0.2 ml water and used for HPLC analyses with 20 μl injections directly onto a C18 80×4.6 mm. The mobile phase was 70:30 v/v, 0.2% TFA: 30% methanol. The UV detector was set at 225 nm. Tryptophan eluted after 5.2-5.4 min and hippuric acid after 3.1-3.4 min."}, "[4]": {"settings": "3000 mg/day for 36 days (printed HL)"}, "[5]": {"settings": "subject one (3000 mg/day), 1st 4 months no treatment, n=11"}, "[6]": {"settings": "subject one (3000 mg/day), 2nd 4 months no treatment, n=3"}, "[7]": {"settings": "subject one, 3000 mg/day QA (30 days), n=5"}, "[8]": {"settings": "subject two (1500 mg/day), 1st 4 months no treatment, n=6"}, "[9]": {"settings": "subject two (1500 mg/day), 2nd 4 months no treatment, n=6"}, "[10]": {"settings": "subject two, 1500 mg/day QA (30 days), n=5"}}, "note": "Like-named read-outs stand apart in the source and are kept apart here."}
{"smiles": "O=C(O)[C@]1(O)C[C@@H](O)[C@@H](O)[C@H](O)C1", "note": "[Aqua Bimini™, quinic acid ammonium chelate]", "values": [{"measurement": "Determination of structure existing in water", "setting": "[1]", "result": "chelate"}, {"measurement": "quinic acid in blood serum samples", "setting": "[2]; 1500 mg or 3000 mg daily oral, 6 samples day 10 to day 37", "result": "No quinic acid was found"}, {"measurement": "quinic acid in human serum", "setting": "[2]; efficacious dose 25 mg/kg in humans, HPLC detection limit 1 mg/kg", "result": "no quinic acid found"}, {"measurement": "urinary tryptophan at start of treatment", "setting": "[3]; 3000 mg/day (printed HL)", "result": 9.32, "unit": "µM"}, {"measurement": "Increase in urinary quinic acid (QA) metabolite (ratio), tryptophan", "setting": "[3]; [4]", "result": 2.44}, {"measurement": "Increase tryptophan/increase thiols", "setting": "[3]; [4]", "result": 1.94}, {"measurement": "average urinary tryptophan during treatment + follow-up", "setting": "[3]; [4]", "result": 22.7, "unit": "µM"}, {"measurement": "Increase in urinary quinic acid (QA) metabolite (ratio), nicotinamide", "setting": "[3]; HL 1500 mg/day for 36 days", "result": 2.83}, {"measurement": "Increase in urinary quinic acid (QA) metabolite (ratio), tryptophan", "setting": "[3]; HL 1500 mg/day for 36 days", "result": 0.99}, {"measurement": "Increase nicotinamide/increase thiols", "setting": "[3]; HL 1500 mg/day for 36 days", "result": 2.32}, {"measurement": "Increase tryptophan/increase thiols", "setting": "[3]; HL 1500 mg/day for 36 days", "result": 0.82}, {"measurement": "average urinary nicotinamide during treatment + follow-up", "setting": "[3]; HL 1500 mg/day for 36 days", "result": 215, "unit": "µM"}, {"measurement": "average urinary tryptophan during treatment + follow-up", "setting": "[3]; HL 1500 mg/day for 36 days", "result": 21.3, "unit": "µM"}, {"measurement": "urinary nicotinamide at start of treatment", "setting": "[3]; HL 1500 mg/day", "result": 76, "unit": "µM"}, {"measurement": "urinary tryptophan at start of treatment", "setting": "[3]; HL 1500 mg/day", "result": 19.3, "unit": "µM"}, {"measurement": "Increase in urinary quinic acid (QA) metabolite (ratio), nicotinamide", "setting": "[3]; RP 3000 mg/day for 36 days", "result": 5.41}, {"measurement": "Increase nicotinamide/increase thiols", "setting": "[3]; RP 3000 mg/day for 36 days", "result": 4.29}, {"measurement": "average urinary nicotinamide during treatment + follow-up", "setting": "[3]; RP 3000 mg/day for 36 days", "result": 57.9, "unit": "µM"}, {"measurement": "urinary nicotinamide at start of treatment", "setting": "[3]; RP 3000 mg/day", "result": 10.7, "unit": "µM"}, {"measurement": "Dose recovery (excrete/dose), excreted as unmetabolized quinic acid", "setting": "[3]; Subject 3000 mg/day, 9 month evaluation period", "result": 59, "unit": "%"}, {"measurement": "Ratio of total dose excreted in 9 months", "setting": "[3]; human, in vivo, 9 months", "result": 2.86}, {"measurement": "remaining dose absorbed as hippuric acid or further metabolized to other compounds", "setting": "[3]; human, in vivo, 1 day", "result": 29.7, "unit": "%"}, {"measurement": "dose excreted at 9 month", "setting": "[3]; human, 1500 mg/day, Subject 1500 mg/day, 9 month evaluation period", "result": 40, "unit": "%"}, {"measurement": "dose excreted at 9 month", "setting": "[3]; human, 3000 mg/day, Subject 3000 mg/day, 9 month evaluation period", "result": 56, "unit": "%"}, {"measurement": "Urinary excretion daily sample, Tryptophan (avg)", "setting": "[3]; oral human dose 21-42 mg/kg (1500-3000 mg/day), 33 days, average over 9 months of RP and HL", "result": "Tryptophan. = 4.2 mg/liter^b"}, {"measurement": "urinary Nicotinamide", "setting": "[3]; [5]", "result": "71 ± 44", "unit": "µM"}, {"measurement": "urinary Tryptophan", "setting": "[3]; [5]", "result": "22 ± 7", "unit": "µM"}, {"measurement": "urinary Nicotinamide", "setting": "[3]; [6]", "result": "71 ± 63", "unit": "µM"}, {"measurement": "urinary Tryptophan", "setting": "[3]; [6]", "result": "19 ± 6", "unit": "µM"}, {"measurement": "urinary Nicotinamide", "setting": "[3]; subject one (3000 mg/day), total sample mean, 9 months, n=19", "result": "58 ± 46", "unit": "µM"}, {"measurement": "urinary Tryptophan", "setting": "[3]; subject one (3000 mg/day), total sample mean, 9 months, n=19, listed as QA", "result": "19 ± 7", "unit": "µM"}, {"measurement": "urinary Nicotinamide", "setting": "[3]; [7]", "result": "21 ± 16", "unit": "µM"}, {"measurement": "urinary Tryptophan", "setting": "[3]; [7]", "result": "13 ± 5", "unit": "µM"}, {"measurement": "urinary Nicotinamide", "setting": "[3]; [8]", "result": "453 ± 139", "unit": "µM"}, {"measurement": "urinary Tryptophan", "setting": "[3]; [8]", "result": "30 ± 8", "unit": "µM"}, {"measurement": "urinary Nicotinamide", "setting": "[3]; [9]", "result": "24 ± 7", "unit": "µM"}, {"measurement": "urinary Tryptophan", "setting": "[3]; [9]", "result": "17 ± 7", "unit": "µM"}, {"measurement": "urinary Nicotinamide", "setting": "[3]; subject two (1500 mg/day), total sample mean, 9 months, n=17", "result": "216 ± 210", "unit": "µM"}, {"measurement": "urinary Tryptophan", "setting": "[3]; subject two (1500 mg/day), total sample mean, 9 months, n=17, listed as QA", "result": "22 ± 9", "unit": "µM"}, {"measurement": "urinary Nicotinamide", "setting": "[3]; [10]", "result": "163 ± 91", "unit": "µM"}, {"measurement": "urinary Tryptophan", "setting": "[3]; [10]", "result": "18 ± 5", "unit": "µM"}, {"measurement": "ratio of nicotinamide/thiols ratios, 3000 versus 1500 mg per day", "setting": "[3]; theoretical dose ratio 2.0", "result": 1.85}, {"measurement": "ratio of tryptophan/thiols ratios, 3000 versus 1500 mg per day", "setting": "[3]; theoretical dose ratio 2.0", "result": 2.4}]}
